Results as given in US20240239787A1, “COMPOUNDS FOR USE IN THE TREATMENT OF CANCER” (Nanyang Technological University, priority 2021, published 2024).

How the values were obtained:
NTR = NTR enzymatic cleavage in vitro (LC-MS); format: biochemical
From the text: Upon the exertion of external enzymatic stimuli, the NTR-responsive moiety undergoes self-immolation to unleash the amino group. Simultaneously, the presence of a reduction agent cleaves the -StBu group to liberate thiol group (—SH), creating the cleaved-J266. The presence of a readily reactive amino group and thiol group on cleaved-J266, with the co-insertion of JQ1-CBT would spontaneously induce the CBT-cysteine orthogonal click conjugation, shaping the luciferin-based structure in click-J252 for targeted protein disruption (FIG. 12a). To validate the kinetics of ENCTAC formation, JW4 was tested against the presence of ntr enzyme accompanied by the co-factor, NADH, at 37° C. across a range of time settings in LC-MS system. The formation of J252 in the presence of J266 and JQ1-CBT was also evaluated by LC-MS.
A MS vial was sequentially added JW4 (10 μM), nicotinamide adenine dinucleotide (NADH, 0.5 mM) and NTR (40 μg/mL), and the mixture was dissolved in PBS (pH 7.4, 10 mM) to a total volume of 500 μL. The mixture in the vial was vortexed and incubated at 37° C. with varying time control from 0-240 min. Structural mass analysis was performed to observe any molecular mass alteration.
A MS vial was sequentially added JW4 (10 μM) or J268 ([…]), NADH (0.5 mM) and NTR (concentration range of 0-40 μg/mL), and the mixture was dissolved in PBS (pH 7.4, 10 mM) to a final volume of 500 μL. The mixture in the vial was vortexed and incubated at 37° C. for 120 min before subjecting to structural mass analysis.

[1] = system: broad range of enzymes and chemical agents; experiment: Selectivity of JW4 with or without NADH (LC-MS); format: biochemical; conditions: JW4 10 μM, reagents 0-40 μg/mL, 120 min
Method: A MS vial was sequentially added JW4 (10 μM), a reagent selected from sodium chloride, calcium chloride, ascorbic acid, glucose, cysteine, furin, CtsB, monoamine oxidase A (MAO-A) and monoamine oxidase B (MAO-B) (concentration range of 0-40 μg/mL), with or without the addition of NADH (0.5 mM) and the mixture was dissolved in PBS (pH 7.4, 10 mM) to a final volume of 500 μL. The mixture in the vial was vortexed and incubated at 37° C. for 120 min before it was subject to structural mass analysis.

HIF-1α = HIF-1α level in hypoxic Hela cells (immunofluorescence imaging, Western blot); format: cell-based, human
Method: (§1) HeLa, Hek293T, MDA-MB-231, 4T1 or B16F10 cells (1.5×10^6 cells/mL) were treated with J266 (10 μM) for 6 h before incubating with JQ1-CBT at the indicated concentrations and time. This entire incubation was performed in normoxia condition. For NTR-moiety caged JW4, the cells were treated with JW4 (10 μM) 6 h prior to the addition of JQ1-CBT for a subsequent 12 h, and was performed entirely under hypoxic condition. Comparison of the downstream effect between the controls and drug-treated cells were completely executed in hypoxic condition. To work up, the cells were washed with cold PBS (pH 7.4) twice, and lysed with RIPA buffer supplemented with protease inhibitor cocktail and phosphatase inhibitor cocktail for 10 min at 4° C. Then, the lysed cells were collected and centrifuged at 13,500 rpm for 20 min at 4° C. The supernatant was collected and the protein concentration was analyzed by NanoDrop™ 2000/2000c Spectrophotometers. The lysate volumes were fine-tuned and loaded onto a Mini-PROTEAN® TGX™ 4-20% Precast Gel and was separated by SDS-PAGE. Then, the gel was transferred onto a PVDF membrane (100 V, 90 min, 4° C.), washed with TBS-T twice, and blocked with 1% BSA for 1 h at r.t. Next, the membrane was incubated with primary antibody overnight at 4° C., washed thrice with TBS-T, followed by incubation with goat anti-rabbit IgG (H+L) Secondary Antibody, HRP for 1 h. The membrane was supplemented with Radiance Q chemiluminescent ECL substrate and visualized using Amersham™ ImageQuant™ 800 biomolecular imager. B-Tubulin was used as the internal control.
Hela cells were plated at a density of 8×10^4 cells/mL in each well of the eight-well ibidi dishes before experiment. To sustain the hypoxia-induced factor throughout the drug treatment process, drug incubation was performed entirely in hypoxic chamber. […] The fluorescence of the alleviated HIF-1α expression upon drug treatment was visualized with Carl Zeiss LSM 800 microscopes (Hoechst 33258: Ex=405 nm, Em=460/50 nm; Alexa Fluor 488: Ex=488 nm, Em=515/30 nm; Alexa Fluor 594: Ex=561 nm, Em=617/20 nm).

BRD4 [2] = target: T1, BRD4 (Homo sapiens, UniProt O60885); experiment: BRD4 degradation by Western blot in HEK293T cells; format: cell-based; parameters: endogenous in cells; host or cells: HEK293T; conditions: 12 h
From the text: The effective production of BRD4 heterobifunctional degraders in solution allowed us to investigate the function of ENCTAC components in biological applications. […] Particularly, NTR responsive JW4, the pomalidomide-containing compound that can target CRBN and is a universal E3 ligase, is expected to be uncaged through NTR-assisted nitro and GSH reduction once it enters the hypoxic cells. The exposed cysteine groups are then readily linked with the CBT moieties on the JQ1-CBT fragments via a specific bioorthogonal click reaction. Besides, the JQ1 warheads are presumed to be simultaneously bound to the BRD4 proteins, thus forming bifunctional degraders in-situ for localized proteolysis (FIG. 17a). […] As proof-of-concept, the control molecule J266 that can only respond to GSH but not NTR, was first introduced into the HEK293T cell line (for 6 h), with subsequent addition of the JQ1-CBT (for 12 h). After intracellular formation of the click-J252, the proteolysis process was observed by western blot analysis.
HeLa, Hek293T, MDA-MB-231, 4T1 or B16F10 cells (1.5×10^6 cells/mL) were treated with J266 (10 μM) for 6 h before incubating with JQ1-CBT at the indicated concentrations and time. This entire incubation was performed in normoxia condition. […] The supernatant was collected and the protein concentration was analyzed by NanoDrop™ 2000/2000c Spectrophotometers. […]

CK2α [3] = target: T2, CK2α (Homo sapiens, UniProt P68400); experiment: Concentration-dependent test for CK2α degradation (immunofluorescence / Western blot); format: cell-based; conditions: 24 h
T2 sequence (P68400 whole entry): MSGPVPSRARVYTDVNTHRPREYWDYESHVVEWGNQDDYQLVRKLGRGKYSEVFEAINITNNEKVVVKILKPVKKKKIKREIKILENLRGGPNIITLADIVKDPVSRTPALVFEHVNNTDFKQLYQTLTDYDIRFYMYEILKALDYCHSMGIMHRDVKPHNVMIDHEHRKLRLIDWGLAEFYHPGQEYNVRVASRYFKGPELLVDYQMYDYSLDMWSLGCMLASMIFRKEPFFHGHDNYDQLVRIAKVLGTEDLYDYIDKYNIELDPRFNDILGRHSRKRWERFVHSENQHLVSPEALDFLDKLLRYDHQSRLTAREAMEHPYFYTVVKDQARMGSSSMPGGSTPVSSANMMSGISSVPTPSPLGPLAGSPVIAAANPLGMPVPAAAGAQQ
Method: Based on the established method (From Merck), the lysates were loaded into the wells in a Mini-PROTEAN® TGX™ 4-20% Precast Gel and run for separation in 30 min under 200 V.
Cell lines including HEK293T and MCF-7 was incubated with varied concentrations of T44 or T120 for 24 h. After that, the protein level was evaluated by the above immunofluorescence staining protocol. Alternatively, the protein level was evaluated by Western blot analysis. Particularly, The lysates of each group of cells were collected and centrifuged at 12,000×g for 20 min at 4° C. Protein levels in supernatants were determined using Nanodrop and equalized to the same concentration and boiled for 10 min with SDS-PAGE sample loading buffer before being separated using SDS-PAGE and transferred to the PVDF membrane. The membrane was then blocked with 5% BSA-TBST blocking buffer overnight at 4° C. Subsequently, CK2α Rabbit polyclonal Antibody (Cell signalling, #2656) was incubated overnight at 4° C. in 1% BSA-TBST buffer. After series of washing, the goat-anti rabbit IGG (H&L) secondary antibody was added and incubated for 1 h in 1% BSA-TBST. All signals were visualized using […] (Image quant 800) system.

CK2α [4] = target: T2, CK2α; experiment: Immunofluorescence staining of CK2α degradation over time; format: cell-based; parameters: Hek293T, MCF-7, and U205 cells were chosen as they can express different levels of CK2α protein; endogenous in cells; host or cells: HEK293T, MCF-7, U2OS; conditions: 0.1 or 1 μM, prolonged time (up to 20 h); Hek293T, MCF-7, U205 cells
Method: After the synthesis of T44 and T120 in Examples 1 and 2, their properties for protein degradation were examined. Hek293T, MCF-7, and U205 cells were chosen as they can express different levels of CK2α protein.
[…] Upon washing with PBS buffer thrice, the protein degradation was examined by immunofluorescence staining.
Each group of cells with density of 5×10^4 cells in each well of 8-well ibidi-dishes was treated with T120 or T44 at different concentration (0.1 μM or 1 μM) and time (0 h, 6 h, 18 h or 30 h). After treatment, the cells were fixed with 4% paraformaldehyde for 15 min, permeabilized with 0.25% Triton™ X-100 for 10 min and blocked with 5% BSA for 1 h at room temperature. The cells were then labelled with CK2α Rabbit polyclonal Antibody (Cell signalling, #2656) in 1% BSA and incubated for 3 h at r.t. Subsequently, Alexa Fluor 488-Goat Anti-Rabbit IgG secondary antibody was stained for 30 min at r.t. The nucleus was stained with Hoechst 33342 for 30 min at r.t. The degradation of CK2α protein was visualized with Carl Zeiss LSM 800 microscopes. (Hoechst 33342: Ex=405 nm, Em=460/50 nm; Alexa Fluor 488: Ex=488 nm, Em=515/30 nm).

zebrafish embryos = experiment: Yolk extension phenotype of zebrafish embryos; format: in vivo; conditions: 50 μM, hypoxia-normoxia alternating 8 h
Method: Wide type zebrafish embryos at 12 hpf was incubated with J252 (50 μM), JW4 (50 μM), or the mixture of JW4 (50 μM) and JQ1-CBT (50 μM) in hypoxia-normoxia alternative condition for 8 h at 28° C. After that, the embryos were further incubated in normoxia condition at 28° C. for 16 h before the yolk extension phenotypes were visualized under Zeiss LSM800 confocal microscope using bright-field channel. Embryos with JW4+JQ1-CBT treatment under normoxia were used as the controls.

zebrafish larvae = experiment: Vascularization of vhl mutant and wide type zebrafish larvae (confocal imaging); format: in vivo; conditions: vhl^hu2117 crosses, 10 μM; non-treatment approximately one quarter
Method: Vasculature zebrafishes were obtained from natural crosses of the AB wild-type strain or vhl^+/hu2117 carriers on the fli1a:egfp^y1 transgenic background (which fluorescently marks the vasculature). JW4 and JQ1-CBT were dissolved in DMSO and the mixture was applied to embryos at equimolar concentration of 10 μM, with J252 (10 μM) and JQ1 (10 μM) used for the control experiments. […] The vascular plexus was imaged on a Zeiss LSM800 confocal microscope. Green: blood vessel tracker, .ex: 488 nm, .em: 520/30 nm; red: . ex: 564 nm, .em: 610/30 nm.

BRD4 [5] = target: T1, BRD4; experiment: Hook effect: BRD4 degradation at extended degrader concentrations under hypoxia; format: cell-based; parameters: endogenous in cells
Method: as §1, with “The membrane was supplemented with Radiance Q chemiluminescent ECL substrate and visualized using Amersham™ ImageQuant™ 800 biomolecular imager. B-Tubulin was used as the internal control.” left out

CC(C)(C)SSC[C@@H](NC(=O)OCc1ccc([N+](=O)[O-])cc1)C(=O)NCCOCCOCC(=O)Nc1cccc2c1C(=O)N(C1CCC(=O)NC1=O)C2=O (some centres unmarked) [JW4, Pomalidomide-PEG-NTR]
NTR enzymatic uncaging (self-immolation) followed by LC-MS (NTR; 10 μM substrate, NTR 40 μg/mL, NADH, 37° C., span of 4 h): near to completion
Kcat of NTR uncaging (NTR; NTR, NADH 0.5 mM, PBS pH 7.4, 37° C.): 0.0157 min⁻¹
Km (NTR; NTR, NADH 0.5 mM, PBS pH 7.4, 37° C., read-out: Km of NTR uncaging): 101 µM
cleavage by different components and enzymes [1]: no obvious cleavage except for NTR+NADH
HIF-1α protein level (HIF-1α): did not induce HIF-1α elimination
BRD4 degradation by independent treatment (alone) (BRD4 [2]): did not induce any degradation

COc1cc(/C=N/n2c(SC)nnc2-c2ccc(OCCOCCOCCOCc3cn(CCOCC(=O)Nc4cccc5c4C(=O)N(C4CCC(=O)NC4=O)C5=O)nn3)cc2)c(Br)cc1O (centres unmarked) [T44]
CK2α degradation effect, concentration dependence (CK2α [3]; HEK293T and MCF-7 cells): cell-dependent
CK2α fluorescence change with different concentrations (CK2α [3]; MCF-7 cells): no obvious fluorescence change
CK2α antibody fluorescence signal in cells after incubation (CK2α [4]): decreased fluorescence signals

Cc1sc2c(c1C)C(c1ccc(Cl)cc1)=N[C@@H](CC(=O)Oc1ccc3nc(C4N=C(C(=O)NCCOCCOCC(=O)Nc5cccc6c5C(=O)N(C5CCC(=O)NC5=O)C6=O)CS4)sc3c1)c1nnc(C)n1-2 (some centres unmarked) [J252]
HIF-1α protein level (HIF-1α): able to downregulate
yolk extension phenotype at 36 hpf (zebrafish embryos): similarly less extension of yolk
vascularized larvae (zebrafish larvae): 22.5%
BRD4 degradation level (BRD4 [5]; 50 μM): around 20%
concentration at which decrease in efficiency of proteolysis started (hook effect) (BRD4 [5]; hypoxia): 5 µM
